The nature of data set [1]: Table 1: tipranavir drug-drug interaction potential and routes of elimination of antiretrovirals. Particulars: drug-drug interaction with tipranavir.
Data set [2] can be described thus: Example 4: pharmacokinetic drug-drug interaction of tipranavir SEDDS 1250 mg BID and ritonavir oral solution 200 mg BID. The format is in vivo, human.
A short description of data set [3]: Study 1: pharmacokinetic drug-drug interaction of tipranavir 1350 mg BID and ritonavir 500 mg BID, plasma levels by HPLC. The format is in vivo, human. Particulars: for CLPO / Cmin / Css: median (range). The source says: Twelve subjects were Caucasian and two were of African descent. Ten subjects completed all aspects of the study. Pharmacokinetic analyses were based on the results obtained in these subjects. […] Detection was by UV absorbance at 260 nm. […] Ritonavir and the internal standard (IS) were extracted from human plasma by liquid-liquid extraction with an ethyl acetate mixture.

The nature of data set [4]: Study 2: pharmacokinetic drug-drug interaction of tipranavir 600 or 900 mg BID and ritonavir 100-500 mg BID, plasma levels by HPLC. The format is in vivo, human. Particulars: for CLPO / Cmin / Css / AUC / Cmax / Tmax: median (range); for half-life / AUC / Cmax / Tmax: both sexes, human, plasma, oral; for half-life: harmonic mean (range), read-out: t½ (converted). On the procedure: Both groups received their assigned dose of tipranavir continuously throughout the study period. […] The pharmacokinetics of tipranavir when coadministered with ritonavir were evaluated and compared with baseline data, while the ritonavir data were compared to historical data. The study was conducted in 19 healthy volunteers (16 males and 3 females) with a mean age of 30 years (range, 19-52 years), height of 177.1 cm (range, 162.6-190.5 cm), and weight of 76.7 kg (range, 57.3-95.0 kg). Eighteen subjects were Caucasian […]. […] Pharmacokinetic analyses were based on those subjects completing the baseline evaluation and at least one period of concomitant drug administration. […] Detection was by UV absorbance at 260 nm. […] Ritonavir and the internal standard (IS) were extracted from human plasma by liquid-liquid extraction with an ethyl acetate mixture.

Where [5] appears, read: Ritonavir Oral Solution 200mg BID + Tipranavir SEDDS SEC 1250mg BID, median (range), N=21.
Setting [6] is: ritonavir 200 mg BID + tipranavir 1250 mg BID vs 500-mg twice-daily ritonavir alone.
The mark [7] stands for this setting: Ritonavir 500 mg BID + Tipranavir 1350 mg BID, n=10.
The mark [8] stands for this setting: Ritonavir 500 mg BID alone, steady state, n=10.
The mark [9] stands for this setting: ritonavir 500 mg BID + tipranavir 1350 mg BID vs ritonavir alone.
[10] abbreviates: Ritonavir 500 mg BID + Tipranavir 600 mg BID, N=7.
[11] abbreviates: Ritonavir 500 mg BID + Tipranavir 900 mg BID, N=6.
[12] abbreviates: ritonavir 500 mg BID + tipranavir 600 or 900 mg BID vs ritonavir alone.

Marks after values point to notes of the source that are not given here.

`CC(C)c1nc(CN(C)C(=O)N[C@H](C(=O)N[C@@H](Cc2ccccc2)C[C@H](O)[C@H](Cc2ccccc2)NC(=O)OCc2cncs2)C(C)C)cs1` [Ritonavir, (2S,3S,5S)-5(N-(N-((N-Methyl-N-((2-isopropyl-4-thiazoly)methyl)amino)carbonyl)-L-valinyl)amino)-2-(N-((5-thiazoly)methoxycarbonyl)amino)-1,6-diphenyl-3-hydroxhexane, reference compound]: the “Potential for Clinically Significant Interaction” value in data set [1] was “High (possibly favorable) (Ritonavir increases trough tipranavir concentrations; tipranavir expected to reduce ritonavir concentrations”. In data set [2] (setting [5]), the CLPO is listed as 25.1 (8.4-73.1)* L/h, the Cmin is 0.035 (0.000-0.341)* µg/mL and the Css is 0.67 (0.23-1.99)* µg/mL. The “apparent elimination half-life of ritonavir relative to ritonavir given alone” value in data set [2] (ritonavir 200 mg BID + tipranavir 1250 mg BID) is recorded as “decreased”. Besides, in data set [2] (setting [6]), the “median ritonavir AUC, fold lower” value was 12 fold; the “median ritonavir Cmax, fold lower” value turned out to be 10 fold; the “median ritonavir Cmin, fold lower” value is given as 54 fold. In addition, in data set [3] (setting [7]), the CLPO was 26 (17-61) L/h, the Cmin was 0.10 (0.04-0.29) µg/mL and the Css is 1.6 (0.69-2.50) µg/mL. Further, in data set [3] (Ritonavir 500 mg BID alone, harmonic mean (range), n=10), the t½ is given as 2.9 (2.6-4.4) h. Besides, in data set [3] (setting [8]), the CLPO was 5.1 (3.9-7.8) L/h, the Cmin is 1.9 (1.0-3.9) µg/mL and the Css is given as 8.4 (5.3-10.7) µg/mL. Further, in data set [3] (both sexes, human, plasma, oral, 500 mg, read-out: t½ (converted)), the half-life is 2.9 h. In data set [3] (setting [9]), the “decrease in mean steady-state ritonavir concentrations” value is about 5 fold; the “decrease of median ritonavir Cmax value” is on record as 3.8 fold; the “median ritonavir Cmin concentration, fold lower” value is on record as “more than 10 fold”. In addition, in data set [4] (setting [10]), the CLPO was 19 (11-31) L/h, the Cmin is on record as 0.15 (0.08-0.53) µg/mL, the Css was 2.3 (1.4-3.7) µg/mL and the half-life was 1.8 h. Besides, in data set [4] (setting [10]), the AUC was 27000 ng·h/mL, the Cmax came out at 7000 ng/mL and the Tmax is 3 h. Moreover, in data set [4] (setting [11]), the CLPO was 19 (12-27) L/h, the Cmin was 0.15 (0.09-0.62) µg/mL, the Css is 1.9 (1.6-3.4) µg/mL and the half-life was 1.8 h. Further, in data set [4] (setting [11]), the AUC came to 26000 ng·h/mL, the Cmax was 5800 ng/mL and the Tmax turned out to be 3 h. Besides, in data set [4] (setting [12]), the “decrease in steady-state plasma ritonavir concentrations” value was about 4 fold; the “median ritonavir Cmax values, fold lower” value is on record as “more than 2 fold”; the “median ritonavir Cmin values, fold lower” value is listed as “more than 10 fold”.
With `Nc1ccn([C@H]2CC[C@@H](CO)O2)c(=O)n1` [ddC], the “Potential for Clinically Significant Interaction” value in data set [1] is given as “Low”.
On the same count and under the same terms, the value for `Cc1ccnc2c1NC(=O)c1cccnc1N2C1CC1` [Nevirapine] was “Uncertain”.
Same read-out and setting: the same measure for `Cc1cn([C@H]2C[C@H](N=[N+]=[N-])[C@@H](CO)O2)c(=O)[nH]c1=O` [AZT, zidovudine]: “Low”.
For the compound `Cc1c(O)cccc1C(=O)N[C@@H](CSc1ccccc1)[C@H](O)CN1C[C@H]2CCCC[C@H]2C[C@H]1C(=O)NC(C)(C)C` [Nelfinavir], the “Potential for Clinically Significant Interaction” value in data set [1] was “High (and unfavorable)”.
As for `CC(C)CN(C[C@@H](O)[C@H](Cc1ccccc1)NC(=O)O[C@H]1CCOC1)S(=O)(=O)c1ccc(N)cc1` [Amprenavir], the “Potential for Clinically Significant Interaction” value in data set [1] is “High (and unfavorable)”.
For the compound `CC(C)(C)NC(=O)[C@@H]1CN(Cc2cccnc2)CCN1C[C@@H](O)C[C@@H](Cc1ccccc1)C(=O)N[C@H]1c2ccccc2C[C@H]1O` [Indinavir], the “Potential for Clinically Significant Interaction” value in data set [1] was “High (and unfavorable)”.
For the compound `Nc1nc(NC2CC2)c2ncn([C@H]3C=C[C@@H](CO)C3)c2n1` [Abacavir], in data set [1], the “Potential for Clinically Significant Interaction” value was “Low”.
As for `O=C1Nc2ccc(Cl)cc2[C@@](C#CC2CC2)(C(F)(F)F)O1` [Efavirenz], the “Potential for Clinically Significant Interaction” value in data set [1] is reported as “Uncertain (Efavirenz is a possible CYP3A inducer)”.
The same measure, in the same setting: the value for `C[C@H](Sc1nc(N)cc(Cl)n1)c1cc2ccoc2cn1` [PNU-142721] was “Uncertain”.
In the case of `O=c1[nH]cnc2c1ncn2[C@H]1CC[C@@H](CO)O1` [ddI], in data set [1], the “Potential for Clinically Significant Interaction” value is recorded as “Low”.

For orientation: AUC means the area under the concentration-time curve, a measure of exposure. A word on the Cmax: it is the peak of the concentration-time curve. A word on the Tmax: it is the time at which the peak concentration occurs.
